Like-named read-outs stand apart in the source and are kept apart here.
Tests used:
Mcl-1 = Mcl-1 (Homo sapiens (Human), UniProt Q07820); test: TR-FRET binding assay, FITC-Bak peptide and MBP-tagged Mcl-1; details: read-out: Ki for Inhibition of Mcl-1 by TR-FRET assay
Procedure: Compounds are diluted in DMSO in a 16-point, semilog serial dilution scheme. […] The plate was mixed and incubated for 3 hours at room temperature. […] TR-FRET signal is plotted and IC50 and Ki values are calculated in the same manner as the fluorescence polarization anisotropy based competition assays.

[1] = tested on: H929 human cancer cell lines; test: Cellular viability / proliferation (Cell TiterGlo, 72 h); assay type: cell-based
Method in brief: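 Plating is at 1,000 cells/well in 10% FBS medium; after 24 h, compound is added as a 2-fold series starting at 50 μM with under 1% DMSO.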

[2] = Homo sapiens, NCI-H929, 72 h, read-out: GI50 on cellular proliferation of H929 human cancer cell lines, H929 cells, 72 h, Cell TiterGlo, 10% FBS

Sequence of Mcl-1 (Q07820 172-327): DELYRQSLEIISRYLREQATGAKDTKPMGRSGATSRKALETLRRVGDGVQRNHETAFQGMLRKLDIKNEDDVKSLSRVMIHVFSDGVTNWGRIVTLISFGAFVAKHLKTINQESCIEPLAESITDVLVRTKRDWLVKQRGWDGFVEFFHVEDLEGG

Row | Structure (SMILES) | Ki (Mcl-1) | GI50 [1, 2] | GI50 ([1]; H929 cells, 72 h, Cell TiterGlo, 10% FBS, read-out: GI50 on cellular proliferation of H929 human cancer cell lines) | GI50 ([1]; read-out: GI50 on cellular proliferation of H929 human cancer cell lines, H929 cells, 72 h, Cell TiterGlo, 10% FBS)
1 | Cc1cc(OCCCc2c3n(c4c(-c5c(C)nc(CN6CCOCC6)nc5C)c(Cl)ccc24)[C@H](C)CN(c2cn(C)c4ccc(-c5ncn(C)n5)cc24)C3=O)cc(C)c1Cl [Example 503, (R)-7-chloro-10-(3-(4-chloro-3,5-dimethylphenoxy)propyl)-6-(4,6-dimethyl-2-(morpholinomethyl)pyrimidin-5-yl)-4-methyl-2-(1-methyl-5-(1-methyl-1H-1,2,4-triazol-3-yl)-1H-indol-3-yl)-3,4-dihydropyrazino[1,2-a]indol-1(2H)-one] | 0.0037 µM | < 0.2 µM | – | –
2 | Cc1cc(OCCCc2c3n(c4c(-c5c(C)nn(C)c5C)c(Cl)ccc24)[C@H](C)CN(c2cn(C)c4ccc(-n5nnnc5C)nc24)C3=O)cc(C)c1Cl [Example 679, (R)-7-Chloro-10-(3-(4-chloro-3,5-dimethylphenoxy)propyl)-4-methyl-2-(1-methyl-5-(5-methyl-JH-tetrazol-1-yl)-1H-pyrrolo[3,2-b]pyridin-3-yl)-6-(1,3,5-trimethyl-1H-pyrazol-4-yl)-3,4-dihydropyrazino[1,2-a]indol-1(2H)-one] | 0.0031 µM | – | 0.94 µM | –
3 | COCCOc1cc(N2C[C@@H](C)n3c(c(CCCOc4cc(C)c(Cl)c(C)c4)c4ccc(Cl)c(-c5c(C)nn(C)c5C)c43)C2=O)c2c(c1)c(C(=O)O)cn2CCOC [Example 656, (R)-7-(7-chloro-10-(3-(4-chloro-3,5-dimethylphenoxy)propyl)-4-methyl-1-oxo-6-(1,3,5-trimethyl-1H-pyrazol-4-yl)-3,4-dihydropyrazino[1,2-a]indol-2(1H)-yl)-5-(2-methoxyethoxy)-1-(2-methoxyethyl)-1H-indole-3-carboxylic acid] | < 0.0002 µM | 0.25 µM | – | –
4 | Cc1cc(N2C[C@@H](C)n3c(c(CCCOc4cc(C)c(Cl)c(C)c4)c4ccc(Cl)c(-c5c(C)nn(C)c5C)c43)C2=O)c2ncc(C(=O)O)cc2c1 [Example 658, (R)-8-(7-chloro-10-(3-(4-chloro-3,5-dimethylphenoxy)propyl)-4-methyl-1-oxo-6-(1,3,5-trimethyl-1H-pyrazol-4-yl)-3,4-dihydropyrazino[1,2-a]indol-2(1H)-yl)-6-methylquinoline-3-carboxylic acid] | < 0.0002 µM | 0.25 µM | – | –
5 | Cc1cc(N2C[C@@H](C)n3c(c(CCCOc4cc(C)c(Cl)c(C)c4)c4ccc(Cl)c(-c5c(C)nn(C)c5C)c43)C2=O)c2c(c1)cc(C(=O)O)n2Cc1cc(C2=NCCO2)ccn1 [Example 600, (R)-7-(7-chloro-10-(3-(4-chloro-3,5-dimethylphenoxy)propyl)-4-methyl-1-oxo-6-(1,3,5-trimethyl-1H-pyrazol-4-yl)-3,4-dihydropyrazino[1,2-a]indol-2(1H)-yl)-1-((4-(4,5-dihydrooxazol-2-yl)pyridin-2-yl)methyl)-5-methyl-1H-indole-2-carboxylic acid] | < 0.0002 µM | 2.5 µM | – | –
6 | Cc1cc(OCCCc2c3n(c4c(-c5c(C)nc(CN6CCN(C)CC6)nc5C)c(Cl)ccc24)[C@H](C)CN(c2cn(C)c4ccc(-c5ncn(C)n5)cc24)C3=O)cc(C)c1Cl [Example 502, (R)-7-chloro-10-(3-(4-chloro-3,5-dimethylphenoxy)propyl)-6-(4,6-dimethyl-2-((4-methylpiperazin-1-yl)methyl)pyrimidin-5-yl)-4-methyl-2-(1-methyl-5-(1-methyl-1H-1,2,4-triazol-3-yl)-1H-indol-3-yl)-3,4-dihydropyrazino[1,2-a]indol-1(2H)-one] | 0.0029 µM | < 0.2 µM | – | –
7 | Cc1cc(OCCCc2c3n(c4c(-c5c(C)nn(C)c5C)c(Cl)ccc24)[C@H](C)CN(c2cc(CCN4CCCCC4)cc4cc(C(=O)O)n(C)c24)C3=O)cc(C)c1Cl [Example 723, (R)-7-(7-chloro-10-(3-(4-chloro-3,5-dimethylphenoxy)propyl)-4-methyl-1-oxo-6-(1,3,5-trimethyl-1H-pyrazol-4-yl)-3,4-dihydropyrazino[1,2-a]indol-2(1H)-yl)-1-methyl-5-(2-(piperidin-1-yl)ethyl)-1H-indole-2-carboxylic acid] | < 0.0002 µM | < 0.2 µM | – | –
8 | CCOCCOc1cc(N2C[C@@H](C)n3c(c(CCCOc4cc(C)c(Cl)c(C)c4)c4ccc(Cl)c(-c5c(C)nn(C)c5C)c43)C2=O)c2c(c1)c(C(=O)O)cn2Cc1ccccn1 [Example 610, (R)-7-(7-chloro-10-(3-(4-chloro-3,5-dimethylphenoxy)propyl)-4-methyl-1-oxo-6-(1,3,5-trimethyl-1H-pyrazol-4-yl)-3,4-dihydropyrazino[1,2-a]indol-2(1H)-yl)-5-(2-ethoxyethoxy)-1-(pyridin-2-ylmethyl)-1H-indole-3-carboxylic acid] | < 0.0002 µM | 0.4 µM | – | –
9 | COCCn1cc(N2C[C@@H](C)n3c(c(CCCOc4cc(C)c(Cl)c(C)c4)c4ccc(Cl)c(-c5c(C)nn(C)c5C)c43)C2=O)c2cc(-c3ncn(C)n3)ccc21 [Example 524, (R)-7-Chloro-10-(3-(4-chloro-3,5-dimethylphenoxy)propyl)-2-(1-(2-methoxyethyl)-5-(1-methyl-1H-1,2,4-triazol-3-yl)-1H-indol-3-yl)-4-methyl-6-(1,3,5-trimethyl-1H-pyrazol-4-yl)-3,4-dihydropyrazino[1,2-a]indol-1(2H)-one] | 0.00028 µM | 0.22 µM | – | –
10 | Cc1cc(OCCCc2c3n(c4c(-c5c(C)nn(C)c5C)c(Cl)ccc24)[C@H](C)CN(c2cn(CCN4CCCCC4)c4ccc(C(=O)O)cc24)C3=O)cc(C)c1Cl [Example 543, (R)-3-(7-Chloro-10-(3-(4-chloro-3,5-dimethylphenoxy)propyl)-4-methyl-1-oxo-6-(1,3,5-trimethyl-1H-pyrazol-4-yl)-3,4-dihydropyrazino[1,2-a]indol-2(1H)-yl)-1-(2-(piperidin-1-yl)ethyl)-1H-indole-5-carboxylic acid] | 0.0029 µM | 1.8 µM | – | –
11 | Cc1cc(OCCCc2c3n(c4c(-c5c(C)nn(C)c5C)c(Cl)ccc24)[C@H](C)CN(c2cc(OCc4ccccn4)cc4cc(C(=O)O)n(C)c24)C3=O)cc(C)c1Cl [Example 481, (R)-7-(7-Chloro-10-(3-(4-chloro-3,5-dimethylphenoxy)propyl)-4-methyl-1-oxo-6-(1,3,5-trimethyl-1H-pyrazol-4-yl)-3,4-dihydropyrazino[1,2-a]indol-2(1H)-yl)-1-methyl-5-(pyridin-2-ylmethoxy)-1H-indole-2-carboxylic acid] | < 0.0002 µM | 0.24 µM | – | –
12 | COc1ccc(N2C[C@@H](C)n3c(c(CCCOc4cc(C)c(Cl)c(C)c4)c4ccc(Cl)c(-c5c(C)n[nH]c5C)c43)C2=O)c2c1cc(C(=O)O)n2Cc1ccccn1 [Example 724, (R)-7-(7-chloro-10-(3-(4-chloro-3,5-dimethylphenoxy)propyl)-6-(3,5-dimethyl-1H-pyrazol-4-yl)-4-methyl-1-oxo-3,4-dihydropyrazino[1,2-a]indol-2(1H)-yl)-4-methoxy-1-(pyridin-2-ylmethyl)-1H-indole-2-carboxylic acid] | < 0.0002 µM | 0.33 µM | – | –
13 | Cc1ccnc(Cn2cc(C(=O)O)c3cccc(N4C[C@@H](C)n5c(c(CCCOc6cc(C)c(Cl)c(C)c6)c6ccc(Cl)c(-c7c(C)nn(C)c7C)c65)C4=O)c32)c1 [Example 484, (R)-7-(7-Chloro-10-(3-(4-chloro-3,5-dimethylphenoxy)propyl)-4-methyl-1-oxo-6-(1,3,5-trimethyl-1H-pyrazol-4-yl)-3,4-dihydropyrazino[1,2-a]indol-2(1H)-yl)-1-((4-methylpyridin-2-yl)methyl)-1H-indole-3-carboxylic acid] | < 0.0002 µM | – | – | 0.31 µM
